Test system: ectonucleotidases expressed in U87 cell membrane preparations
Test: Enzymatic assay on U87 cell membrane preparations (adenosine formation, CE)
Type: biochemical, human
Conditions: 10 µg, 30 min 37°C, substrate 6 to 500 µM
Experimental: U87 glioblastoma cells were grown in cell culture dishes until reaching a fully covered confluent cell layer. Cells were cultivated at 37°C and 5% CO2 in DMEM with additions of 10% FCS, 1% penicillin/streptomycin (P/S) mixture and 1% L-glutamine. When confluent, the cell culture media was carefully removed and cells were frozen at -20°C overnight. The cells were then scraped off with a cell scraper using 2-3 mL of buffer (5 mM Tris, 2 mM EDTA, pH 7.4), homogenized and centrifuged for 10 min at 1000 g. The supernatant was collected and centrifuged for 60 min at 48000 g and 4°C. The pellet was then resuspended twice with Tris buffer, pH 7.4, followed by vortexing and centrifugation. The whole procedure was performed on ice. Finally, the pellet was resuspended and homogenized. A protein concentration of 1.5 mg/mL was determined with the Bradford method ([35]), and the protein was kept at -20°C until used. The enzymatic assay was performed by incubating the membrane preparation and the substrate at 37°C and 500 rpm for 30 min, followed by heat inactivation at 95°C for 5 min. For the determination of kinetic parameters, several substrate concentrations (from 6 to 500 µM of ATP or AMP) were utilized and incubated with 10 µg of membrane preparation for 30 min at 37°C, followed by heat inactivation. Capillary electrophoresis (CE) was used for analysis and quantification of the enzymatic product according to published procedures ([11], [36]). For the determination of the enzymatic activity 400 µM of ATP were employed, and three different amounts of membrane preparation (6, 10 and 30 µg of protein) were utilized. A positive control using the known NPP1 inhibitor PSB-POM-141 (20 µM) was performed ([19]). Data were obtained from three independent experiments each in duplicate measurements. […] Controls were run in parallel.

Row | Structure (SMILES) | Km
1 | Nc1ncnc2c1ncn2[C@@H]1O[C@H](COP(=O)(O)O)[C@@H](O)[C@H]1O [AMP] | 38 µM
2 | Nc1ncnc2c1ncn2[C@@H]1O[C@H](COP(=O)(O)OP(=O)(O)OP(=O)(O)O)[C@@H](O)[C@H]1O [ATP] | 83 µM

Reference: article PMC10497752, “Heparins are potent inhibitors of ectonucleotide pyrophosphatase/phospho-diesterase-1 (NPP1) – a promising target for the immunotherapy of cancer” (Frontiers in Immunology, 2023)
